According to PMC4503722, “Novel Phenotypic Outcomes Identified for a Public Collection of Approved Drugs from a Publicly Accessible Panel of Assays” (PLoS ONE, 2015):
Where two headings read alike, the source gives them in different places.

Assays:
[1] = system: INS-1E cells; format: cell-based, rat;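 for 5mMGluc INS1E SecretionMod IC50/EC50: secreted insulin quantified by homogeneous immunoassay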;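 for IC50/EC50, 5mMGluc INS1E SecretionMod (assay number 8): secreted insulin quantified by homogeneous immunoassay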
[2] = system: tonic K+ channel activity in INS-1E cells; assay: cells; format: cell-based, rat
[3] = system: HeLa cells; assay: cells; format: cell-based
[4] = system: INS-1E cells; assay: cells; format: cell-based, rat
[5] = system: NCI-H716 cells; assay: cells; format: cell-based, Human; details: assay number 12
[6] = system: STC-1 cell line; format: cell-based, mouse; details: assay number 13
[7] = system: HT-29; assay: cells; format: cell-based; details: assay number 28; basal
[8] = system: HCT116; assay: cells; format: cell-based; details: assay number 25; basal
[9] = system: DLD-1; assay: cells; format: cell-based; details: assay number 23; basal
[10] = system: RKO; assay: cells; format: cell-based; details: assay number 29; basal
[11] = system: Colo320; assay: cells; format: cell-based; details: assay number 27; basal
[12] = system: SW480; assay: cells; format: cell-based; details: assay number 24; basal
[13] = system: SNU-C1; assay: cells; format: cell-based; details: assay number 30; basal
[14] = AE BONE PAIN, FAERS, ref [45], cited from earlier work
[15] = assay number 10, 0.1 mM glucose

Molecule | 0.1mMGluc_INS1E SecretionMod Act IC50/EC50 ([1]; assay number 9, 0.1 mM glucose) [µM] | 0.1mMGluc_INS1E FluxOR IC50/EC50 [2, 15] [µM] | Hela CellCycMod PI 2N IC50/EC50 ([3]; assay number 14, 2N) [µM] | Hela CellCycMod PI S Phase IC50/EC50 ([3]; assay number 15, S phase) [µM] | Hela CellCycMod PI 4N IC50/EC50 ([3]; assay number 16, 4N) [µM] | Hela CellCycMod PI MI IC50/EC50 ([3]; assay number 17, MI) [µM] | Hela CellCycMod PI Cell Number IC50/EC50 ([3]; assay number 18, cell number) [µM] | 5mMGluc_INS1E SecretionMod IC50/EC50 ([4]; assay number 8, 5 mM glucose) [µM] | other results
Cc1ccc(S(=O)(=O)NC(=O)NN2CC3CCCC3C2)cc1 (stereo not shown) [NCGC00095107-09] | > 33.33 | 0.6403 | > 10 | > 10 | > 10 | > 10 | > 10 | 1.834 | 
Clc1ccc2c(c1)CCc1cccnc1C2=C1CCNCC1 [NCGC00159325-05] | > 33.33 | > 33.3333 |  |  |  |  |  | 7.105 | hNCI-H716 GLP1 Secretion IC50/EC50 [5]: > 40 µM; mSTC-1 GLP1 Secretion IC50/EC50 [6]: > 40 µM
CCN(CC)CCOc1ccccc1C(=O)CCc1ccccc1 [NCGC00160484-02] |  |  |  |  |  |  |  |  | IC50/EC50, 0.1mMGluc_INS1E SecretionMod Act (assay number 9) ([1]; 0.1 mM glucose): > 33.33 µM; IC50/EC50, 0.1mMGluc_INS1E FluxOR (assay number 10) ([2]; 0.1 mM glucose): 6.739 µM; IC50/EC50, Hela CellCycMod PI 2N (assay number 14) ([3]; 2N): > 10 µM; IC50/EC50, Hela CellCycMod PI 4N (assay number 16) ([3]; 4N): > 10 µM; IC50/EC50, Hela CellCycMod PI Cell Number (assay number 18) ([3]; Cell Number): > 10 µM; IC50/EC50, Hela CellCycMod PI MI (assay number 17) ([3]; MI): > 10 µM; IC50/EC50, Hela CellCycMod PI S Phase (assay number 15) ([3]; S Phase): > 10 µM; IC50/EC50, 5mMGluc_INS1E SecretionMod (assay number 8) ([4]; 5 mM glucose): 3.892 µM
CCN(CC)CCCN(c1ccccc1)C1Cc2ccccc2C1.Cl [NCGC00167576-02] | > 33.33 | 14.9742 |  |  |  |  |  | 7.1279 | 
CC(C)C1CCC(C(=O)N[C@H](Cc2ccccc2)C(=O)O)CC1 (stereo partly shown) [NCGC00178741-03] | > 33.33 | 0.2515 |  |  |  |  |  | 7.074 | 
CC1CC(=O)NN=C1c1ccc(NCC(C)(C)NCC(O)COc2cc(Cl)ccc2C#N)cc1 (stereo not shown) [NCGC00249416-01] | > 33.33 | 84.8421 |  |  |  |  |  | 15.1547 | 
CN(C)CCOC(c1ccccc1)c1ccc(Br)cc1 (stereo not shown) [NCGC00249891-01] | > 33.33 | 10.9665 | > 10 | > 10 | > 10 | > 10 | > 10 | 2.767 | Basal_Viability ATP HT-29 IC50/EC50 [7]: 17.0256 µM; Basal_Viability ATP HCT116 IC50/EC50 [8]: > 20 µM; Basal_Viability ATP DLD-1 IC50/EC50 [9]: > 20 µM; Basal_Viability ATP RKO IC50/EC50 [10]: > 20 µM; Basal_Viability ATP Colo 320 IC50/EC50 [11]: > 20 µM; Basal_Viability ATP SW480 IC50/EC50 [12]: > 20 µM; Basal_Viability ATP SNU-C1 IC50/EC50 [13]: 3.0987 µM
Cc1ccc(CCn2c3c(c4cc(Cl)ccc42)CN(C)CC3)cn1 [NCGC00253726-01] | > 33.33 | 39.9057 | > 10 | > 10 | > 10 | > 10 | > 10 | 4.201 | 
CC(CC1c2ccccc2CCc2ccccc21)CN(C)C (stereo not shown) [NCGC00274277-01] |  |  |  |  |  |  |  |  | 0.1mMGluc_INS1E SecretionMod Act IC50/EC50 [1]: > 33.33 µM; 0.1mMGluc_INS1E FluxOR IC50/EC50 [2]: 19.9984 µM; Hela CellCycMod PI 2N IC50/EC50 [3]: > 10 µM; Hela CellCycMod PI 4N IC50/EC50 [3]: > 10 µM; Hela CellCycMod PI Cell Number IC50/EC50 [3]: > 10 µM; Hela CellCycMod PI MI IC50/EC50 [3]: > 10 µM; Hela CellCycMod PI S Phase IC50/EC50 [3]: > 10 µM; 5mMGluc_INS1E SecretionMod IC50/EC50 [4]: 3.6382 µM
Pegfilgrastim: Drug A generic name in the FAERS table (protein, UniProt P09919 31-207, looked up, pegfilgrastim; PEG; N-terminal Met) Granulocyte …: TPLGPASSLPQSFLLKCLEQVRKIQGDGAALQEKLVSECATYKLCHPEELVLLGHSLGIPWAPLSSCPSQALQLAGCLSQLHSGLFLYQGLLQALEGISPELGPTLDTLQLDVADFATTIWQQMEELGMAPALQPTQGAMPAFASAFQRRAGGVLVASHLQSFLEVSYRVLRHLAQP |  |  |  |  |  |  |  |  | Adjusted Z-Score ([14]; Drug A with vs without methotrexate): -2.755; # of Specific AE Occurrence With Drug A With Drug B ([14]; with methotrexate): 13; # of Specific AE Occurrence With Drug A Without Drug B ([14]; without methotrexate): 641
